Reference: US5484934A, “Isothiazole derivatives, a process for production thereof and uses thereof” (Nihon Nohyaku Co., Ltd., priority 1992, dated 1996)

Legend:
[1] = tested on: Rhizopus nigricans; assay: Inhibition of hypha growth on malt extract agar, Rhizopus nigricans; conditions: Rhizopus stolonifer, read-out: Controlling effect (growth inhibition rate) RHS
Protocol: (§1) Each preparation to be tested was added to malt extract agar medium to adjust the concentration to 50 ppm, and the resulting mixture was dispensed into Petri dishes. As an inoculum, a prepared mycerial tuft of each test fungus was punched out together with agar by means of a 4-mm-diameter cork borer and inoculated on medium. The incubation temperature was adjusted to 28±2° .C (or 18±2° C. in the case of Selupula lacrymas).
(§2) The diameter of mycerial tuft was measured 2 to 10 days after the inoculation, and the inhibition rate of hypha growth (the following equation) was measured.

[2] = tested on: Pseudoperonospora cubensis; assay: Controlling effect on cucumber Downy mildew; format: in vivo; conditions: 168 h, 200 ppm spray, inoculation after 24 hours, read-out: Controlling effect Pc (cucumber downy mildew)
[3] = tested on: Coriolus versicolor; assay: Inhibition of hypha growth on malt extract agar, Coriolus versicolor; format: cell-based; conditions: Trametes versicolor, 28±2° C., 2 to 10 days, read-out: Controlling effect (growth inhibition rate) COV
[4] = tested on: Aspergillus niger; assay: Inhibition of hypha growth on malt extract agar, Aspergillus niger; conditions: read-out: Controlling effect (growth inhibition rate) ASN
Protocol: as §1, §2
(§3) The controlling effect was evaluated according to the following criterion.

[5] = tested on: Botrytis cinerea; assay: Controlling effect (curing effect) on cucumber gray mold; format: in vivo; conditions: 72 h, immersion of inoculated cotyledons, 15° C., read-out: Controlling effect Bc (cucumber gray mold)
Protocol: Controlling effect (curing effect) on cucumber gray mold The cotyledons of potted cucumber plants at the 1 leaf stage were cut off and each of them was inoculated with a mycelial tuft of gray mold fungus (Botrytis cinerea) cultured on PSA medium. After having been placed in a moist chamber at 15° C. for 24 hours, the cotyledons were immersed in a 200 ppm liquid chemical containing each compound of the present invention as active ingredient. […]

[6] = tested on: Phytophthora infestants; assay: whole plant or invertebrate; format: in vivo; conditions: 168 h; read-out: Controlling effect Pi (tomato late blight)
[7] = tested on: Tyromyces palustris; assay: Inhibition of hypha growth on malt extract agar, Tyromyces palustris; conditions: read-out: Controlling effect (growth inhibition rate) TYP
Protocol: as §1, §2

[8] = tested on: Pyricularia oryzae; assay: whole plant or invertebrate; format: in vivo; conditions: 168 h, read-out: Controlling effect Ps (rice blast)
[9] = tested on: Serpula lacrymans; assay: Inhibition of hypha growth on malt extract agar, Serpula lacrymans; conditions: read-out: Controlling effect (growth inhibition rate) SEL
Protocol: as §1, §2

[10] = tested on: Alternaria mali; assay: Inhibition of hypha growth on malt extract agar, Alternaria mali; conditions: read-out: Controlling effect (growth inhibition rate) ALM
Protocol: as §1, §2, §3

[11] = tested on: Chaetomium globosum; assay: Inhibition of hypha growth on malt extract agar, Chaetomium globosum; conditions: read-out: Controlling effect (growth inhibition rate) CHG
Protocol: as §1, §2, §3

[12] = tested on: Trichoderma viride; assay: Inhibition of hypha growth on malt extract agar, Trichoderma viride; conditions: read-out: Controlling effect (growth inhibition rate) TRV
Protocol: as §1, §2

[13] = tested on: Cladosporium cladosporioides; assay: Inhibition of hypha growth on malt extract agar, Cladosporium cladosporioides; conditions: read-out: Controlling effect (growth inhibition rate) CLC
Protocol: as §1, §2

[14] = tested on: Fusarium oxysporum; assay: Inhibition of hypha growth on malt extract agar, Fusarium oxysporum; conditions: read-out: Controlling effect (growth inhibition rate) FUO
Protocol: as §1, §2, §3

Structure (SMILES)	inhibition at 50 ppm [1]	pest or weed control at 200 ppm [2]	inhibition at 50 ppm [3]	inhibition at 50 ppm [4]	pest or weed control at 200 ppm [5]	pest or weed control at 200 ppm [6]	inhibition at 50 ppm [7]	pest or weed control at 200 ppm [8]	inhibition at 50 ppm [9]	inhibition at 50 ppm [10]	inhibition at 50 ppm [11]	inhibition at 50 ppm [12]	inhibition at 50 ppm [13]	inhibition at 50 ppm [14]
COc1nsc(S(=O)(=O)c2ccc(Cl)cc2)c1C#N [Compound 93]	100%	95 to 100%	100%	100%	60 to 79%	95 to 100%	100%	95 to 100%	100%	100%	100%	100%	100%	100%
COc1nsc(S(=O)(=O)C(F)F)c1C#N [Compound 140]	100%	95 to 100%	100%	100%	95 to 100%	95 to 100%	100%	95 to 100%	100%	100%	100%	100%	100%	100%
CC(C)Oc1nsc(S(=O)(=O)C(F)F)c1C#N [Compound 144]	100%	95 to 100%	100%	100%	95 to 100%	95 to 100%	100%	95 to 100%	100%	100%	100%	100%	100%	100%
C#CCOc1nsc(S(=O)(=O)C(F)F)c1C#N [Compound 148]	100%	80 to 94%	100%	100%	60 to 79%	95 to 100%	100%	95 to 100%	100%	100%	100%	100%	100%	100%
